Read-outs that look alike come from different tables or passages of the source.
Tests used:
[1] = Therapeutic drug monitoring of dalbavancin plasma concentrations (Cmin, Cmax) in a severely underweight patient; type: in vivo, human
Experimental: Following multidisciplinary consultation, a dosing regimen of dalbavancin 1000 mg administered on day 1 and day 8 was initiated. Subsequent dosing intervals were guided based on TDM results, assessing both minimum (Cmin, within 1 h before the injection) and maximum (Cmax, 30–60 min after the end of infusion) dalbavancin plasma concentrations, as previously described.[3],[4] Cmin and Cmax values were incorporated into log-linear regression models by plotting the logarithm of dalbavancin plasma concentrations against time, to estimate individualized timing of subsequent doses, with the aim of maintaining Cmin levels above 8 mg/L (based on a breakpoint MIC of […]).[3–7],[9]
The quantification of dalbavancin plasma concentrations was performed using a previously validated liquid chromatography–tandem mass spectrometry method.[10] The volume of distribution was estimated as the ratio between the dalbavancin dose and the mean Cmax concentration. Written informed consent for all medical procedures and interventions performed in accordance with clinical practice was obtained from the patient.

[2] = system: Corynebacterium striatum; assay: Clinical course of prosthetic aortic valve infective endocarditis under dalbavancin therapy; type: in vivo, human; conditions: single patient
From the text: (§1) We report the case of a patient who required initiation of dalbavancin therapy in November 2024 for infective endocarditis of a biological aortic valve (replaced April 2024) caused by Corynebacterium striatum. […] Due to a high surgical risk, the patient was deemed ineligible for repeat cardiac surgery.
The eighth dalbavancin dose was scheduled 50 days after the previous administration.

[3] = cited from earlier work
From the text: As a result, severely underweight patients may theoretically be at risk of drug overexposure when treated with the conventional 1 ...

[4] = Tolerability of earlier antibiotic therapy in the patient; type: in vivo, human; conditions: single patient, treatment before the start of dalbavancin
From the text: as §1

For `CN[C@H]1C(=O)N[C@@H]2Cc3ccc(cc3)Oc3cc4cc(c3O[C@@H]3O[C@H](C(=O)O)[C@@H](O)[C@H](O)[C@H]3NC(=O)CCCCCCCCC(C)C)Oc3ccc(cc3Cl)[C@@H](O)[C@@H]3NC(=O)[C@H](NC(=O)[C@@H]4NC(=O)[C@@H](NC2=O)c2cc(cc(O)c2Cl)Oc2cc1ccc2O)c1ccc(O)c(c1)-c1c(O[C@H]2O[C@H](CO)[C@@H](O)[C@H](O)[C@@H]2O)cc(O)cc1[C@@H](C(=O)NCCCN(C)C)NC3=O` [dalbavancin, Dalbavancin], the “Cmin (minimum dalbavancin plasma concentration)” value ([1]; patient, 28-38 kg, 1000 mg on day 1 and day 8, then TDM-guided intervals, seven administrations over 217 days, sampled within 1 h before the injection, plasma, LC-MS/MS, at each TDM assessment) was “exceeded 8 mg/L”, the “volume of distribution, range” value ([1]; severely underweight patient (28-38 kg), dose/Cmax, range over the observation period) was 2.2 to 3.1 L and the “mean volume of distribution” value ([1]; severely underweight patient (28-38 kg), ratio between dalbavancin dose and mean Cmax (30-60 min after end of infusion), plasma LC-MS/MS, mean ± spread over administrations) was 2.7 ± 0.4 L. The “volume of distribution (approximate, as discussed)” value ([1]; severely underweight patient, markedly reduced compared with reported values) was 2 to 3 L, the PET scan finding ([2]; PET scan 6 months after initiation of dalbavancin therapy) was “stability of the infectious process” and the “clinical status at last follow-up visit” value ([2]; last follow-up visit after seven dalbavancin administrations, negative inflammatory markers) was “no fever or signs of systemic infection”. The volume of distribution ([3]; normal-weight individuals) was 3 to 4 L, the volume of distribution ([3]; obese individuals) was 6 to 7 L and the volume of distribution ([3]; overweight individuals) was 4 to 5 L.
With vancomycin the “tolerability in the patient” value [4] was “discontinued due to a cutaneous adverse reaction”.
